From ChEMBL document CHEMBL4699487, “Discovery of ONO-8590580: A novel, potent and selective GABA α negative allosteric modulator for the treatment of cognitive disorders” (Bioorg Med Chem Lett, 2020)

Assays:
[1] = Apparent permeability in MDCK-MDR1 cells; type: ADME, cell-based, Canis lupus familiaris; details: dog
[2] = Volume of distribution at steady state in rat at […], iv; type: ADME, organism-based; details: in vivo, dose 0.44 mg/kg, read-out: Vdss
[3] = Cmax in rat at […], iv; type: ADME, organism-based; design: route intravenous, dose 0.44 mg/kg; details: in vivo
[4] = AUC infinity in rat at […], iv; type: ADME, organism-based; design: route intravenous, time infinity, dose 0.44 mg/kg; details: in vivo
[5] = Cmax in rat at 3 mg/kg, po; type: ADME, organism-based; design: route oral, dose 3 mg/kg; details: in vivo
[6] = AUC infinity in rat at 3 mg/kg, po; type: ADME, organism-based; design: time infinity, route oral, dose 3 mg/kg; details: in vivo
[7] = Oral bioavailability in rat at 3 mg/kg; type: ADME, organism-based; details: in vivo

- Papp [1]: 47 ×10⁻⁶ cm/s
- Vd [2]: 1.7 L/kg
- Cmax [3]: 278 ng/mL
- AUC(0-inf) [4]: 400 ng·h/mL
- Cmax [5]: 520 ng/mL
- AUC(0-inf) [6]: 1780 ng·h/mL
- bioavailability [7]: 65%
Compound: Cc1c(F)c(Nc2ccc(-c3cn(C)cn3)cn2)cc2c1ncn2CC1CC1
